# How the values were obtained:
# [1] = tested on: platinum-resistant ovarian cancer, primary peritoneal carcinoma, or fallopian tube carcinoma; assay: Randomized trial of gemcitabine + pertuzumab vs gemcitabine + placebo, PFS and OS by qRT-PCR HER3 (Examples 1 and 4); assay type: in vivo, human
# From the text: Patients who had progressed while receiving, or within 6 months of receiving, a platinum-based chemotherapy regimen were eligible for this study. Patients were randomized to receive either gemcitabine in combination with pertuzumab, or gemcitabine in combination with placebo. Patients treated herein included those who had not received a previous salvage regimen treatment for platinum-resistant disease prior to study entry, and those who had received one prior regimen for platinum-resistant disease. Gemcitabine was administered at 1000 mg/m^2 on days 1 and 8 of each 21 day cycle. Gemcitabine was infused first over 30 minutes. Dose reductions were permitted for toxicity. […] Subjects without progressive disease received treatment for up to 17 cycles, or 1 year. Patients had standard gemcitabine dose reduction and held doses as a result of cytopenias. […] Subsequent doses were at the reduced doses and were not increased. If dose reduction or holding a dose was required in more than 4 occasions, or if doses were held for more than 3 weeks, then gemcitabine was discontinued and with the approval of the treating physician and medical monitor, blinded drug was continued until disease progression. If Day 8 gemcitabine doses were held, then the Day 8 dose was omitted and the subsequent treatment was commenced with the next cycle (Day 22 of the previous cycle). Response was assessed at the end of Cycles 2, 4, 6, 8, 12 and 17. Measurable disease was assessed using the Response Evaluation Criteria for Solid Tumors (RECIST), by clinical evaluation and CT scan or equivalent. Response for subjects with evaluable disease was assessed according to changes to CA-125 and clinical and radiologic evidence of disease. Responses were confirmed 4-8 weeks after the initial documentation of response. The following outcome measures were assessed. Progression free survival, as determined by investigator assessment using RECIST or CA-125 changes, following initiation of assigned study treatment of all subjects in each arm. Formalin-fixed, paraffin embedded tissue (FFPET) samples obtained from the patients in this clinical trial were analyzed for EGFR, HER2, HER3, two HER ligands (amphiregulin and betacellulin), and G6PDH (a housekeeping gene) by qRT-PCR. The qRT-PCR assay was performed by TARGOS Molecular Pathology GmbH (Kassel, Germany) using Roche Diagnostic's lab lot kits. The workflow and analysis for performing the qRT-PCR assay on the clinical samples are depicted in FIGS. 27 and 28 herein. The efficacy results were assessed at 7.1 months median follow-up (range 1.3-20.3). There were 101 progression free survival (PFS) events at that time. […] P-values were estimated using stratified Cox model and stratified log-rank test by randomization stratification factors (ECOG PS, number of prior regimens for platinum resistant disease, and disease measurability). Patients with CDDP-R EOC were randomized to G+P or G+placebo. Treatment was given until progression or until unacceptable toxicity. The primary endpoint was PFS. A secondary objective was to evaluate efficacy outcomes in patients with HER2 activation-related expression profiles. A qRT-PCR assay using archival formalin-fixed paraffin-embedded tissue (FFPET), preformed as described above, allowed mRNA expression analysis of HER pathway genes, including HER1, HER2, HER3, amphiregulin, and betacellulin. Outcomes were described by low gene expression (<median) and by high gene expression (≧median).
# [2] = tested on: advanced, refractory, or recurrent ovarian cancer; assay: Single arm phase II trial of single agent pertuzumab, PFS and OS by HER3 qRT-PCR (Example 2); assay type: in vivo, human; settings: for median survival: single agent pertuzumab, FIG. 25
# Protocol: This example concerns a single arm, open label, multicenter phase II clinical trial of ovarian cancer patients. […] Tumor assessments were obtained after 2, 4, 6, 8, 12 and 16 cycles. Response Rate (RR) by RECIST was the primary endpoint. Safety and tolerability were additionally evaluated. Secondary endpoints were TTP, duration of response, duration of survival, pharmacokinetics (PK), and FOSI (cohort 2). qRT-PCR assays were performed on archived formalin fixed paraffin embedded tissue. Assay data is available for 46/117 patients. Here high HER3 expressors were in the greater than and equal to 75th percentile, while low HER3 expressors were in the less than 75th percentile.
# [3] = tested on: platinum-sensitive recurrent ovarian cancer; assay: Randomized open-label Phase II study of pertuzumab with carboplatin-based standard chemotherapy (Example 3); assay type: in vivo, human; settings: FIGS. 32-35
# From the text: In this randomized, open-label Phase II clinical study, the efficacy and safety of pertuzumab treatment in combination with carboplatin-based standard chemotherapy was investigated in patients with platinum-sensitive recurrent ovarian cancer. The target sample size is 100-500 individuals. Target sample size is 148. Inclusion Criteria: • histologically confirmed ovarian, primary peritoneal, or fallopian tube cancer; • only 1 previous regimen, which must be platinum-based; • platinum-sensitive disease which is defined by a progression-free interval of greater than 6 months after completion of platinum-based chemotherapy. Exclusion Criteria: • previous radiotherapy; • previous treatment with an anti-cancer vaccine or any targeted therapy; • major surgery or traumatic injury within 4 weeks of study; • history or evidence of central nervous system metastases.
# [4] = tested on: incurable, locally advanced, recurrent or metastatic solid tumors; settings: cited from earlier work
# [5] = in vivo; cited from earlier work
Molecule,"pertuzumab activity (PFS) by HER3 expression ([1]; qRT-PCR HER3 cutoffs, FIGS. 14-15)",median survival ([2]; high HER3 expressing patients (greater than and equal to 75th percentile)),median survival ([2]; low HER3 expressing patients (less than 75th percentile)),outcomes in terms of PFS and OS by HER3 expression ([2]; patients with low HER3 expression vs high),pertuzumab activity (PFS) by HER2:HER3 expression [3],pertuzumab activity (PFS) by HER3 expression [3],"tolerability ([4]; in vivo, iv)","Tumor regression ([4]; patients evaluable for response, pertuzumab IV every 3 weeks)",confirmed partial responses ([4]; pertuzumab IV every 3 weeks),mean clearance [5],mean terminal elimination half-life [5],OS (median months) ([1]; All Patients (n = 130)),PFS (median months) ([1]; All Patients (n = 130)),"OS (median months) ([1]; High HER3 (N = 61), ≧median)","PFS (median months) ([1]; High HER3 (N = 61), ≧median)","OS (median months) ([1]; Low HER3 (N = 61), <median)","PFS (median months) ([1]; Low HER3 (N = 61), <median)"
"pertuzumab: humanized HER2 antibody, HER dimerization inhibitor, comprising light and heavy chain amino acid sequences in SEQ ID NOS. 13 and 14",greatest in patients with HER3 low expressing tumors,1.80 years,3.31 years,better outcomes in terms of PFS and OS,greatest in patients with high HER2:HER3 expressing cancer,greatest in patients with HER3 low expressing cancer,generally well tolerated,3 of 20,Two,2.69 to 3.74 mL/day/kg,15.3 to 27.6 days,–,–,–,–,–,–
"Cl.Nc1ccn([C@@H]2O[C@H](CO)[C@@H](O)C2(F)F)c(=O)n1 (single isomer, unassigned) [G + Placebo, 2′-deoxy-2′,2′-difluorocytidine monohydrochloride (b-isomer)]",–,–,–,–,–,–,–,–,–,–,–,13.1 months,2.6 months,18.2 months,5.5 months,8.4 months,1.4 months

# Reference: patent publication US8940302B2, “Predicting response to a HER inhibitor” (Genentech, Inc., priority 2007, dated 2015)
